# BindingDB's records for doi:10.1021/jm00009a001 (Cns Research, 1995)
# Target: Metabotropic glutamate receptor 5 (Rattus norvegicus, UniProt P31424)
# Assay: Concentration for half maximal activation of metabotropic glutamate mGluR5a in rat
# Metabotropic glutamate receptor 5, sequence (P31424 whole entry): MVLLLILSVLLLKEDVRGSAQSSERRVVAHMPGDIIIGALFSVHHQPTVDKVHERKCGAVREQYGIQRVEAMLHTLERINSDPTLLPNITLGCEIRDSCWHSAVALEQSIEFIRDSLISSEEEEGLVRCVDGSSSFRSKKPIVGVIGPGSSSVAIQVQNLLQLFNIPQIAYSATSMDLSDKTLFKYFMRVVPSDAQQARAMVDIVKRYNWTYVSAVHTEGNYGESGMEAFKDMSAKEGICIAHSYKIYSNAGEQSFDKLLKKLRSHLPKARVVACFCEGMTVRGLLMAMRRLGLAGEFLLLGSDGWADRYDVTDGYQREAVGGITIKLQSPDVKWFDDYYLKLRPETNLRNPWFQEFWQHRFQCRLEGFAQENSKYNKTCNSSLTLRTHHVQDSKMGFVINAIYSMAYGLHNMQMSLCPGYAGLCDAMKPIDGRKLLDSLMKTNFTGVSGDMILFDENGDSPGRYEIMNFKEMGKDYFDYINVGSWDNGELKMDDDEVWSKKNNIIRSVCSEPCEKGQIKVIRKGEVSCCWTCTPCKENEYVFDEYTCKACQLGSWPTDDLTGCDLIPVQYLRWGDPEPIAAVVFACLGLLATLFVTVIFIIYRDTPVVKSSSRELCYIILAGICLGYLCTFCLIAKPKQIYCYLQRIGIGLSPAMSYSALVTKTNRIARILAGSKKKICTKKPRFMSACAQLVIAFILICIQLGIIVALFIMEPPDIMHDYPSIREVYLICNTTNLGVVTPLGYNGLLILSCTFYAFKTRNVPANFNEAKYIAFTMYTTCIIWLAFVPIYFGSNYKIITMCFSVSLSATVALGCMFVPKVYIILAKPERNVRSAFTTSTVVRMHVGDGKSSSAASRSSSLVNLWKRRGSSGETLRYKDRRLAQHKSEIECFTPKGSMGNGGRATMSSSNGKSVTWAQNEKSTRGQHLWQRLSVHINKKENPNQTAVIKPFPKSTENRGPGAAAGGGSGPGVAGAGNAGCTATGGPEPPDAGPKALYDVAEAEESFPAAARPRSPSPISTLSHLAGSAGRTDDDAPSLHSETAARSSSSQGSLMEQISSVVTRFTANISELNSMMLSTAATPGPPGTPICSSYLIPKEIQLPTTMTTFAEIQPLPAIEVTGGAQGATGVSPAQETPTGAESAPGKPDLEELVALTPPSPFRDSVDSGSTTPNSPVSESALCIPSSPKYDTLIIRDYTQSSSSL
row,Structure (SMILES),EC50
1,N[C@@]1(C(=O)O)CC[C@@H](C(=O)O)C1 [SMR001230688],50 µM
2,N[C@@H](CCC(=O)O)C(=O)O [L-Glutamic acid],10 µM
3,"N[C@H](C(=O)O)c1cc(=O)[nH]o1 [(S)-Amino-(3-oxo-2,3-dihydro-isoxazol-5-yl)-acetic acid]",10 µM
4,"N[C@@H](Cn1oc(=O)[nH]c1=O)C(=O)O [2-amino-3-(3,5-dioxo[1,2,4]oxadiazolidin-2-yl)propionic acid]",0.3 µM
